Source: PubChem BioAssay (NCI)
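In this assay, cells in 96-well plates receive the compound at five concentrations for 48 hours. Endpoints are linearly interpolated between the surrounding concentrations. TGI: total growth inhibition.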

Columns and labels:
Experiment in all cases: growth of human tumour cells (NCI), 48 h
UO-31 renal = test system: UO-31 renal
COLO 205 colon = test system: COLO 205 colon
RPMI-8226 leukemia = test system: RPMI-8226 leukemia
KM12 colon = test system: KM12 colon
MDA-N = test system: MDA-N
U251 CNS = test system: U251 CNS
A549 NSCLC = test system: A549 NSCLC
SK-MEL-2 melanoma = test system: SK-MEL-2 melanoma
K-562 leukemia = test system: K-562 leukemia
HL-60(TB) leukemia = test system: HL-60(TB) leukemia
MCF7 breast = test system: MCF7 breast
MOLT-4 leukemia = test system: MOLT-4 leukemia
HCC-2998 colon = test system: HCC-2998 colon
HCT-15 colon = test system: HCT-15 colon
HCT-116 colon = test system: HCT-116 colon
MDA-MB-435 = test system: MDA-MB-435
SR leukemia = test system: SR leukemia
HOP-62 NSCLC = test system: HOP-62 NSCLC
BT-549 breast = test system: BT-549 breast
SF-295 CNS = test system: SF-295 CNS
SK-MEL-28 melanoma = test system: SK-MEL-28 melanoma
SK-MEL-5 melanoma = test system: SK-MEL-5 melanoma
UACC-257 melanoma = test system: UACC-257 melanoma
PC-3 prostate = test system: PC-3 prostate
OVCAR-5 ovarian = test system: OVCAR-5 ovarian
CCRF-CEM leukemia = test system: CCRF-CEM leukemia
SNB-19 CNS = test system: SNB-19 CNS
MDA-MB-231 breast = test system: MDA-MB-231 breast
HOP-92 NSCLC = test system: HOP-92 NSCLC
NCI-H23 lung = test system: NCI-H23 lung
OVCAR-8 ovarian = test system: OVCAR-8 ovarian
SN12C renal = test system: SN12C renal
ACHN renal = test system: ACHN renal
OVCAR-3 ovarian = test system: OVCAR-3 ovarian
CAKI-1 renal = test system: CAKI-1 renal
M14 melanoma = test system: M14 melanoma
TK-10 renal = test system: TK-10 renal
LOX IMVI melanoma = test system: LOX IMVI melanoma
HT29 colon = test system: HT29 colon
EKVX NSCLC = test system: EKVX NSCLC
DU-145 prostate = test system: DU-145 prostate
NCI-H460 lung = test system: NCI-H460 lung
NCI/ADR-RES ovarian = test system: NCI/ADR-RES ovarian
MALME-3M melanoma = test system: MALME-3M melanoma
OVCAR-4 ovarian = test system: OVCAR-4 ovarian
786-0 renal = test system: 786-0 renal
NCI-H226 lung = test system: NCI-H226 lung
RXF 393 renal = test system: RXF 393 renal
IGROV1 ovarian = test system: IGROV1 ovarian
SF-268 CNS = test system: SF-268 CNS
SF-539 CNS = test system: SF-539 CNS
A498 renal = test system: A498 renal
T-47D breast = test system: T-47D breast
NCI-H522 lung = test system: NCI-H522 lung
SW-620 colon = test system: SW-620 colon
SK-OV-3 ovarian = test system: SK-OV-3 ovarian
SNB-75 CNS = test system: SNB-75 CNS

Measured: TGI

CCCCCCNc1n[nH]c(=O)c2c1nnn2Cc1ccccc1
not listed: NCI-H226 lung | RXF 393 renal | IGROV1 ovarian | SF-268 CNS | SF-539 CNS | A498 renal | T-47D breast | NCI-H522 lung | SW-620 colon | SK-OV-3 ovarian | SNB-75 CNS
> 100 µM: all other assays above

O=CCC1CCCCC1
not listed: U251 CNS | HL-60(TB) leukemia | MCF7 breast | HCC-2998 colon | SR leukemia | CCRF-CEM leukemia | OVCAR-8 ovarian | TK-10 renal | HT29 colon | DU-145 prostate
> 100 µM: all other assays above
